In ChEMBL document CHEMBL1201862, “PubChem BioAssay data set” (2004):
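All cell lines were grown in 96-well plates and treated with compound for 48 hours. GI50 is the concentration that inhibits growth by half.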 The source made the active and inactive calls. Cut-off read from the data, not from the text of the source: active = GI50 up to about 1.1 µM and inactive = higher.

Columns and labels:
Assay in all cases: DTP human tumour cell line panel, 48 h
[1] = tested on: LOX IMVI
[2] = tested on: OVCAR-5
[3] = tested on: LXFL 529
[4] = tested on: KM-20L2
[5] = tested on: SNB-19
[6] = tested on: CCRF-CEM
[7] = tested on: M14
[8] = tested on: KM12
[9] = tested on: NCI-H23
[10] = tested on: SK-MEL-5
[11] = tested on: DLD-1
[12] = tested on: 786-0
[13] = tested on: IGROV-1
[14] = tested on: K562
[15] = tested on: HCT-116
[16] = tested on: Malme-3M
[17] = tested on: SF-539
[18] = tested on: OVCAR-4
[19] = tested on: COLO 205
[20] = tested on: ACHN
[21] = tested on: RPMI-8226
[22] = tested on: NCI-H522
[23] = tested on: RXF 393
[24] = tested on: UACC-62
[25] = tested on: HCC 2998
[26] = tested on: SK-MEL-2
[27] = tested on: SK-OV-3
[28] = tested on: OVCAR-3
[29] = tested on: NCI-H460
[30] = tested on: EKVX
[31] = tested on: HOP-62
[32] = tested on: HT-29
[33] = tested on: SNB-75
[34] = tested on: RXF 631
[35] = tested on: HOP-18
[36] = tested on: SNB-78
[37] = tested on: NCI-H226
[38] = tested on: SF-268
[39] = tested on: TK-10
[40] = tested on: DMS-273
[41] = tested on: U-251
[42] = tested on: SF-295
[43] = tested on: OVCAR-8
[44] = tested on: HCT-15
[45] = tested on: HL-60
[46] = tested on: UACC-257
[47] = tested on: UO-31
[48] = tested on: HOP-92
[49] = tested on: CAKI-1
[50] = tested on: MOLT-4
[51] = tested on: M19-MEL
[52] = tested on: SK-MEL-28
[53] = tested on: A549
[54] = tested on: DMS-114
[55] = tested on: SN12C
[56] = tested on: SW-620
[57] = tested on: A498
[58] = tested on: DU-145
[59] = tested on: MDA-MB-435
[60] = tested on: SR
[61] = tested on: Hs-578T
[62] = tested on: PC-3
[63] = tested on: MDA-N
[64] = tested on: NCI/ADR-RES
[65] = tested on: MDA-MB-231
[66] = tested on: T47D

With `Cc1ccccc1/C=N/C12CC3CC(CC(C3)C1)C2` as the compound, how does the GI50 [1] read?
Its GI50 is > 100 µM (inactive).

And the GI50 [2]?
The GI50 was > 100 µM (inactive).

What about the GI50 [3] of the same compound?
Its GI50 is > 100 µM (inactive).

What about the GI50 [4] of the same compound?
Its GI50 is > 100 µM (inactive).

What about the GI50 [5] of the same compound?
Its GI50 is > 100 µM (inactive).

And the GI50 [6]?
Its GI50 is > 100 µM (inactive).

What about the GI50 [7] of the same compound?
The GI50 was > 100 µM (inactive).

What about the GI50 [8] of the same compound?
Its GI50 is > 100 µM (inactive).

And the GI50 [9]?
Its GI50 is > 100 µM (inactive).

What about the GI50 [10] of the same compound?
The GI50 was > 100 µM (inactive).

What about the GI50 [11] of the same compound?
Its GI50 is > 100 µM (inactive).

And the GI50 [12]?
The GI50 was > 100 µM (inactive).

What about the GI50 [13] of the same compound?
The GI50 was > 100 µM (inactive).

And the GI50 [14]?
The GI50 was > 100 µM (inactive).

What about the GI50 [15] of the same compound?
The GI50 was > 100 µM (inactive).

What about the GI50 [16] of the same compound?
The GI50 was > 100 µM (inactive).

What about the GI50 [17] of the same compound?
Its GI50 is > 100 µM (inactive).

What about the GI50 [18] of the same compound?
The GI50 was > 100 µM (inactive).

What about the GI50 [19] of the same compound?
Its GI50 is > 100 µM (inactive).

And the GI50 [20]?
The GI50 was > 100 µM (inactive).

What about the GI50 [21] of the same compound?
The GI50 was > 100 µM (inactive).

What about the GI50 [22] of the same compound?
Its GI50 is > 100 µM (inactive).

What about the GI50 [23] of the same compound?
The GI50 was > 100 µM (inactive).

What about the GI50 [24] of the same compound?
The GI50 was > 100 µM (inactive).

And the GI50 [25]?
Its GI50 is > 100 µM (inactive).

And the GI50 [26]?
Its GI50 is > 100 µM (inactive).

And the GI50 [27]?
The GI50 was > 100 µM (inactive).

What about the GI50 [28] of the same compound?
The GI50 was > 100 µM (inactive).

And the GI50 [29]?
The GI50 was > 100 µM (inactive).

What about the GI50 [30] of the same compound?
The GI50 was > 100 µM (inactive).

What about the GI50 [31] of the same compound?
The GI50 was > 100 µM (inactive).

What about the GI50 [32] of the same compound?
The GI50 was > 100 µM (inactive).

And the GI50 [33]?
The GI50 was > 100 µM (inactive).

And the GI50 [34]?
Its GI50 is > 100 µM (inactive).

What about the GI50 [35] of the same compound?
The GI50 was > 100 µM (inactive).

And the GI50 [36]?
The GI50 was > 100 µM (inactive).

And the GI50 [37]?
The GI50 was > 100 µM (inactive).

And the GI50 [38]?
Its GI50 is > 100 µM (inactive).

And the GI50 [39]?
Its GI50 is > 100 µM (inactive).

And the GI50 [40]?
The GI50 was > 100 µM (inactive).

What about the GI50 [41] of the same compound?
Its GI50 is > 100 µM (inactive).

What about the GI50 [42] of the same compound?
Its GI50 is 49.3 µM (inactive).

What about the GI50 [43] of the same compound?
Its GI50 is > 100 µM (inactive).

And the GI50 [44]?
The GI50 was > 100 µM.

And the GI50 [45]?
The GI50 was > 100 µM (inactive).

And the GI50 [46]?
Its GI50 is > 100 µM (inactive).

What about the GI50 [47] of the same compound?
The GI50 was > 100 µM (inactive).

What about the GI50 [48] of the same compound?
The GI50 was > 100 µM (inactive).

And the GI50 [49]?
The GI50 was > 100 µM (inactive).

And the GI50 [50]?
The GI50 was > 100 µM (inactive).

And the GI50 [51]?
The GI50 was > 100 µM (inactive).

And the GI50 [52]?
The GI50 was > 100 µM (inactive).

What about the GI50 [53] of the same compound?
Its GI50 is > 100 µM (inactive).

And the GI50 [54]?
Its GI50 is > 100 µM (inactive).

What about the GI50 [55] of the same compound?
Its GI50 is > 100 µM (inactive).

And the GI50 [56]?
The GI50 was > 100 µM (inactive).

What about the GI50 [57] of the same compound?
Its GI50 is > 100 µM (inactive).

With `COc1ccc(/C(Cl)=C(\C=O)c2cc(OC)c(OC)c(OC)c2)cc1OC` as the compound, how does the GI50 [58] read?
Its GI50 is 44.7 µM (inactive).

What about the GI50 [59] of the same compound?
Its GI50 is 48.4 µM (inactive).

And the GI50 [1]?
The GI50 was 19.7 µM (inactive).

What about the GI50 [2] of the same compound?
The GI50 was 67.8 µM (inactive).

What about the GI50 [3] of the same compound?
The GI50 was 11.2 µM (inactive).

And the GI50 [4]?
The GI50 was 22.8 µM (inactive).

What about the GI50 [5] of the same compound?
Its GI50 is > 52.6 µM (inactive).

And the GI50 [6]?
Its GI50 is 26.1 µM (inactive).

And the GI50 [7]?
Its GI50 is 56.4 µM (inactive).

What about the GI50 [8] of the same compound?
The GI50 was 24.8 µM (inactive).

And the GI50 [60]?
Its GI50 is > 100 µM (inactive).

And the GI50 [9]?
Its GI50 is 12.3 µM (inactive).

And the GI50 [10]?
The GI50 was 14.8 µM (inactive).

What about the GI50 [12] of the same compound?
Its GI50 is 34.4 µM (inactive).

What about the GI50 [61] of the same compound?
Its GI50 is 27.5 µM (inactive).

And the GI50 [13]?
Its GI50 is 44.5 µM (inactive).

What about the GI50 [14] of the same compound?
The GI50 was 25.7 µM (inactive).

And the GI50 [15]?
Its GI50 is 36.6 µM (inactive).

And the GI50 [16]?
Its GI50 is 15 µM (inactive).

And the GI50 [17]?
Its GI50 is 26.2 µM (inactive).

And the GI50 [62]?
The GI50 was 55.1 µM (inactive).

And the GI50 [18]?
The GI50 was 24.3 µM (inactive).

What about the GI50 [19] of the same compound?
The GI50 was 27.5 µM (inactive).

And the GI50 [20]?
Its GI50 is 26.3 µM (inactive).

What about the GI50 [21] of the same compound?
The GI50 was 10.8 µM (inactive).

And the GI50 [22]?
Its GI50 is 7.38 µM (inactive).

What about the GI50 [23] of the same compound?
The GI50 was > 100 µM (inactive).

What about the GI50 [24] of the same compound?
Its GI50 is 15.7 µM (inactive).

And the GI50 [25]?
Its GI50 is 26.4 µM (inactive).

And the GI50 [26]?
Its GI50 is 19.6 µM (inactive).

What about the GI50 [27] of the same compound?
Its GI50 is 72.4 µM (inactive).

What about the GI50 [28] of the same compound?
The GI50 was 27.7 µM (inactive).

And the GI50 [29]?
The GI50 was 18.5 µM (inactive).

What about the GI50 [30] of the same compound?
Its GI50 is 24.7 µM (inactive).

And the GI50 [31]?
Its GI50 is 29.5 µM (inactive).

What about the GI50 [32] of the same compound?
The GI50 was 12.8 µM (inactive).

What about the GI50 [33] of the same compound?
The GI50 was 10.8 µM (inactive).

What about the GI50 [34] of the same compound?
Its GI50 is 19.7 µM (inactive).

And the GI50 [35]?
The GI50 was 12.2 µM (inactive).

And the GI50 [36]?
The GI50 was 16.8 µM (inactive).

And the GI50 [37]?
The GI50 was 19.8 µM (inactive).

What about the GI50 [38] of the same compound?
The GI50 was 23.8 µM (inactive).

And the GI50 [39]?
The GI50 was 56.6 µM (inactive).

What about the GI50 [40] of the same compound?
Its GI50 is 35.8 µM (inactive).

And the GI50 [41]?
The GI50 was 23 µM (inactive).

What about the GI50 [42] of the same compound?
Its GI50 is 34.1 µM (inactive).

What about the GI50 [63] of the same compound?
Its GI50 is 12.3 µM (inactive).

And the GI50 [43]?
The GI50 was 17.8 µM (inactive).

What about the GI50 [44] of the same compound?
Its GI50 is 19.8 µM.

What about the GI50 [45] of the same compound?
The GI50 was 5.78 µM (inactive).

And the GI50 [46]?
Its GI50 is 62.2 µM (inactive).

What about the GI50 [47] of the same compound?
The GI50 was 16.8 µM (inactive).

And the GI50 [64]?
The GI50 was 13.2 µM (inactive).

What about the GI50 [48] of the same compound?
Its GI50 is 49 µM (inactive).

What about the GI50 [49] of the same compound?
The GI50 was 22.9 µM (inactive).

What about the GI50 [65] of the same compound?
Its GI50 is 68.5 µM (inactive).

What about the GI50 [50] of the same compound?
The GI50 was 22.4 µM (inactive).

What about the GI50 [51] of the same compound?
The GI50 was 35.2 µM (inactive).

What about the GI50 [52] of the same compound?
The GI50 was 61.8 µM (inactive).

And the GI50 [53]?
The GI50 was 33.3 µM (inactive).

What about the GI50 [66] of the same compound?
The GI50 was 20.4 µM (inactive).

What about the GI50 [54] of the same compound?
Its GI50 is 12.1 µM (inactive).

What about the GI50 [55] of the same compound?
Its GI50 is 23.2 µM (inactive).

What about the GI50 [56] of the same compound?
The GI50 was > 61.2 µM (inactive).

And the GI50 [57]?
Its GI50 is 37.9 µM (inactive).
